The source of these data is patent publication EP0230023B1, “Pharmaceutical compositions for the enhancement of wound healing” (MARION MERRELL DOW INC., priority 1985, dated 1987).

Values joined by “and” are separate entries in the source; they are usually repeats but may differ in a detail not shown here. Identical values can stand only once. Some results are limits rather than exact numbers.

In experiment [1] the test system is collagen. Nature of the experiment: Sucrose octasulfate induced collagen fibrillogenesis (stopped-flow turbidity). It is filed as biochemical. An excerpt:
Sucrose octasulfate-induced collagen fibril formation was studied in a spectrophotometer equipped with a stopped-flow apparatus. […]

Experiment [2] deals with bone fracture. Nature of the experiment: Repair of bone fractures (fractured ulna, loss of minerals on decalcification, histology). Format: in vivo, guinea pigs. The conditions noted are these: for after decalcification / before decalcification: ten days after surgery. On the procedure:
The ulnae of 18 guinea pigs were exposed surgically and then fractured at the midshaft, using a very fine dental burr as a saw. The intact radius served as an immobilization splint. The animals were divided into six groups, three in each, according to the treatment at the fracture site, which was as follows: • Group 1. Untreated controls • Group 2. Sucrose octasulfate 1.0 mg/ml instilled at the fracture site with a syringe • Group 3. Sucrose octasulfate 4.0 mg/ml • Group 4. Collagen (a native 0.25% neutral salt solution) • Group 5. Collagen plus sucrose octasulfate 1.0 mg/ml • Group 6. Collagen plus sucrose octasulfate 4.0 mg/ml
The animals were sacrified ten days after surgery, and the fractured bones were dissected and processed for both histologic and biochemical analyses.

Where [3] appears, read: sucrose octasulfate 1 mg/ml at fracture site.
Where [4] appears, read: sucrose octasulfate 4 mg/ml at fracture site.

For `O=S(=O)([O-])OC[C@H]1O[C@@](COS(=O)(=O)[O-])(O[C@H]2O[C@H](COS(=O)(=O)[O-])[C@@H](OS(=O)(=O)[O-])[C@H](OS(=O)(=O)[O-])[C@H]2OS(=O)(=O)[O-])[C@@H](OS(=O)(=O)[O-])[C@@H]1OS(=O)(=O)[O-].[K+].[K+].[K+].[K+].[K+].[K+].[K+].[K+]` [Sucrose Octasulfate, potassium sucrose octasulfate], the “moles of sucrose octasulfate per mole of collagen initiating the reaction” value in experiment [1] is “five”. Moreover, the “critical concentration (lower concentration required for initiation of fibrillogenesis of collagen)” value in experiment [1] (collagen 0.5 mg/ml, pH 7.4) came out at 0.01 mg/ml. For the same compound, the “fibrillogenesis at pH 3.0 compared with pH 7.4” value in experiment [1] (pH 3.0) is listed as “Identical results”. In addition, the “time to dissociation of the transient complex” value in experiment [1] (sucrose octasulfate 0.01 mg/ml, collagen 0.5 mg/ml) is at most 100 ms. In addition, the “time of formation of collagen fibrils” value in experiment [1] (sucrose octasulfate 0.2 mg/ml, collagen 0.5 mg/ml, pH 7.4) is 60 to 70 ms and 60 to 75 ms. Besides, the values for the after decalcification in experiment [2] (setting [3]) and in experiment [2] (setting [4]) were 2.20 and 2.60, respectively. Moreover, the before decalcification was 7.00 in experiment [2] (setting [3]) and 5.90 in experiment [2] (setting [4]). Also, the decrease in experiment [2] (sucrose octasulfate 1 mg/ml, loss of minerals following decalcification) came out at 4.80 mg; in experiment [2] (sucrose octasulfate 1 mg/ml, percent loss of minerals following decalcification), 68.6%; in experiment [2] (sucrose octasulfate 4 mg/ml, loss of minerals following decalcification), 3.30 mg; in experiment [2] (sucrose octasulfate 4 mg/ml, percent loss of minerals following decalcification), 55.9%.
